The text below walks through data of US20230339886A1 (University of Florida Research Foundation, Incorporated, priority 2020, published 2023).

Structures are written as SMILES. pEC50: −log10 of the molar value.

T1 sequence (P20393 with tags, fused parts or gaps DEL324-422): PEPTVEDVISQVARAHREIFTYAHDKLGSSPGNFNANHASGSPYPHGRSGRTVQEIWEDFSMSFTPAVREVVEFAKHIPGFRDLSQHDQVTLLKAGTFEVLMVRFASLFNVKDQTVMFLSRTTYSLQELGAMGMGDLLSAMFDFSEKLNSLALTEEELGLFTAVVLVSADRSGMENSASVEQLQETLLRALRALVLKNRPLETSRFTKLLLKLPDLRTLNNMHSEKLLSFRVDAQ
T1 sequence (Q9Y618 2335-2356 partner limits assumed): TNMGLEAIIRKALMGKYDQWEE

The assay addresses T1, REV-ERBα LBD (human; residues 281-614 Δ324-422) (Homo sapiens, UniProt P20393, DEL324-422).
T1 construct: 6×Histag-REV-ERBα LBD (human; residues 281-614 Δ324-422); made in house; host or cells: Escherichia coli
As to the kind of experiment: TR-FRET corepressor interaction assay (REV-ERBα LBD, FITC-SMRT peptide). In kind it is biochemical. As to conditions: Table 2, read-out: REVERBα agonism (EC50 class, FRET assay). As to the method: TR-FRET corepressor interaction assay. The time-resolved fluorescence resonance energy transfer (TR-FRET) assay was performed in black low-volume 384-well plates (Greiner). […] Ligand stocks were prepared via serial dilution in DMSO, added to wells in triplicate, and plates were incubated at 4° C. for 2 h and read using a BioTek Synergy Neo multimode plate reader. The Tb donor was excited at 340 nm; its fluorescence emission was monitored at 495 nm, and the acceptor FITC emission was measured at 520 nm; and the TR-FRET ratio was calculated as the signal at 520 nm divided by the signal at 495 nm. Data were plotted using GraphPad Prism as TR-FRET ratio vs. ligand concentration and fit to sigmoidal dose response curve equation.
On the technique in general: In TR-FRET formats the signal depends on donor and acceptor labels being close together.
Consider `CC(C)Cn1cc(CCS(=O)(=O)C(C)C)c2ccc(C3CCCCC3)cc21` [Compound 250], for which the pEC50 is above 6.30.

With `CC(C)Cn1cc(C(C)CNS(=O)(=O)C(C)C)c2ccc(-c3ccncc3)cc21` (centres unmarked) [Compound 251], the pEC50 is above 6.30.

For `CC(C)Cn1cc(C(C)CNS(=O)(=O)C2CC2)c2ccc(-c3ccncc3)cc21` (centres unmarked) [Compound 253], the pEC50 is 5.52 to 6.30.

Turning to `CC(C)Cn1cc(C(C)CNS(=O)(=O)C(C)C)c2ccc(-c3ccccc3)cc21` (centres unmarked) [Compound 254], the pEC50 is below 5.52.

`CC(C)Cn1cc(C(C)CNS(=O)(=O)N(C)C)c2ccc(-c3ccccc3)cc21` (centres unmarked) [Compound 255]: the pEC50 was 5.52 to 6.30.

As to `CC(C)Cn1cc(C(C)CNS(=O)(=O)C2CC2)c2ccc(-c3ccccc3)cc21` (centres unmarked) [Compound 256], the pEC50 was below 5.52.

With `CC(C)Cn1cc([C@H]2C[C@H]2NS(=O)(=O)C(C)C)c2ccc(Br)cc21` [Compound 257], the pEC50 was 5.52 to 6.30.

Consider `CC(C)Cn1cc([C@H]2C[C@H]2NS(=O)(=O)C(C)C)c2ccc(-c3ccncc3)cc21` [Compound 258], for which the pEC50 was above 6.30.

As to `CC(C)Cn1cc([C@H]2C[C@H]2NS(=O)(=O)C(C)C)c2ccc(-c3ccccc3)cc21` [Compound 259], the negative-log EC50 (pEC50) is below 5.52.

With `CC(C)Cn1cc(CCNS(=O)(=O)C(C)C)c2cc(F)c(-c3ccccc3)cc21` [Compound 261], the pEC50 was above 6.30.

For the molecule `CC(C)Cn1cc(CNS(=O)(=O)C(C)C)c2cc(F)c(-c3ccccc3)cc21` [Compound 266], the negative-log EC50 (pEC50) was above 6.30.

Take `CC(C)Cn1cc(CNS(=O)(=O)C(C)C)c2cc(F)c(-c3ccccc3Cl)cc21` [Compound 267]: the pEC50 was above 6.30.

Regarding `CC(C)Cn1cc(CNS(=O)(=O)C(C)C)c2cc(F)c(-c3ccncc3Cl)cc21` [Compound 268], the pEC50 was above 6.30.

Regarding `CC(C)Cn1cc(CNS(=O)(=O)C(C)C)c2cc(F)c(-c3ccccc3C(F)(F)F)cc21` [Compound 269], the pEC50 is above 6.30.

Take `CC(C)S(=O)(=O)NCCc1cn(CCC(C)(C)C)c2cc(-c3ccncc3)ccc12` [Compound 270]: the pEC50 was above 6.30.

In the case of `CC(C)S(=O)(=O)NCCc1cn(CC(C(F)(F)F)C(F)(F)F)c2cc(-c3ccncc3)ccc12` [Compound 271], the pEC50 was 5.52 to 6.30.

For the molecule `CC(C)S(=O)(=O)NCCc1cn(CC2CCCC2)c2cc(-c3ccncc3)ccc12` [Compound 272], the pEC50 was above 6.30.

In the case of `CC(C)Cn1cc(CC(NS(=O)(=O)C(C)C)C(F)(F)F)c2ccc(-c3ccncc3)cc21` (centres unmarked) [Compound 273], the pEC50 was below 5.52.

As to `CC(C)Cn1cc(CC(N(C)S(=O)(=O)C(C)C)C(F)(F)F)c2ccc(-c3ccncc3)cc21` (centres unmarked) [Compound 274], the negative logarithm of the EC50 (pEC50) is below 5.52.

Regarding `CC(C)Cn1cc(CC(C)NS(=O)(=O)C(C)C)c2ccc(-c3ccncc3)cc21` (centres unmarked) [Compound 275], the pEC50 was 5.52 to 6.30.

Take `CC(C)Cn1cc(CC(C)N(C)S(=O)(=O)C(C)C)c2ccc(-c3ccncc3)cc21` (centres unmarked) [Compound 276]: the negative logarithm of the EC50 (pEC50) was above 6.30.

Turning to `CC(C)Cn1cc(CCN(C(C)C)S(=O)(=O)C(C)C)c2ccc(-c3ccncc3)cc21` [Compound 277], the pEC50 was above 6.30.

Regarding `O=S(=O)(NCc1cn(CC2CCCC2)c2cc(-c3ccccc3C(F)(F)F)c(F)cc12)C1CC1` [Compound 280], the pEC50 is above 6.30.

As for `O=S(=O)(NCCc1cn(CC2CCCC2)c2cc(-c3ccncc3Cl)ccc12)C1CC1` [Compound 281], the pEC50 was above 6.30.

On to `O=S(=O)(NCc1cn(CC(C(F)(F)F)C(F)(F)F)c2cc(-c3ccncc3Cl)c(F)cc12)C1CC1` [Compound 284], for which the pEC50 was 5.52 to 6.30.

On to `CC(C)(C)C(=O)n1cc(CNS(=O)(=O)C(F)(F)F)c2cc(F)c(-c3ccncc3Cl)cc21` [Compound 285], for which the pEC50 was below 5.52.

As to `CC(C)(C)Cn1cc(CCNS(=O)(=O)C2CC2)c2cc(F)c(-c3ccccc3C(F)(F)F)cc21` [Compound 287], the pEC50 is above 6.30.

Take `CC(C)(C)Cn1cc(CCNS(=O)(=O)C2CC2)c2cc(F)c(-c3ccncc3Cl)cc21` [Compound 288]: the pEC50 is above 6.30.

For the molecule `CC(C)S(=O)(=O)NCCc1cn(CC(C)(C)C)c2cc(-c3ccccc3C(F)(F)F)c(F)cc12` [Compound 289], the pEC50 is above 6.30.

With `CC(C)S(=O)(=O)NCCc1cn(CC(C)(C)C)c2cc(-c3ccncc3Cl)c(F)cc12` [Compound 290], the pEC50 is above 6.30.

`CC(C)Cn1cc(C(C)N[S+]([O-])C(C)(C)C)c2ccc(-c3ccccc3C(F)(F)F)cc21` (centres unmarked) [Compound 291]: the pEC50 was below 5.52.

For the molecule `Cc1c(CCNS(=O)(=O)N(C)C)c2ccc(-c3ccncc3)cc2n1CC(C)C` [Example 41, dimethyl({2-[2-methyl-1-(2-methylpropyl)-6-(pyridin-4-yl)-1H-indol-3-yl]ethyl}sulfamoyl)amine], the pEC50 is below 5.52.

With `CC(C)Cn1cc(CCNS(=O)(=O)N(C)C)c2ccc(-c3ccc(F)cc3)cc21` [Example 45, N-{2-[6-(4-fluorophenyl)-1-(2-methylpropyl)-1H-indol-3-yl]ethyl}-N,N-dimethylsulfuric diamide], the pEC50 is 5.52 to 6.30.

Consider `Cc1ccccc1-c1ccc2c(CCNS(=O)(=O)N(C)C)cn(CC(C)C)c2c1` [Example 46, N-{2-[6-(2-methylphenyl)-1-(2-methylpropyl)-1H-indol-3-yl]ethyl}-N,N-dimethylsulfuric diamide], for which the negative logarithm of the EC50 (pEC50) is above 6.30.

As for `Cc1ccc(-c2ccc3c(CCNS(=O)(=O)N(C)C)cn(CC(C)C)c3c2)cc1` [Example 48, N-{2-[6-(4-methylphenyl)-1-(2-methylpropyl)-1H-indol-3-yl]ethyl}-N,N-dimethylsulfuric diamide], the negative logarithm of the EC50 (pEC50) is 5.52 to 6.30.

In the case of `CC(C)Cn1cc(CCNS(=O)(=O)N(C)C)c2ccc(-c3cccc([N+](=O)[O-])c3)cc21` [Example 49, N-{2-[6-(3-nitrophenyl)-1-(2-methylpropyl)-1H-indol-3-yl]ethyl}-N,N-dimethylsulfuric diamide], the pEC50 was above 6.30.

Consider `CC(C)Cn1cc(CCNS(=O)(=O)N(C)C)c2ccc(-c3cc(F)cc(F)c3)cc21` [Example 54, N-{2-[6-(3,5-difluorophenyl)-1-(2-methylpropyl)-1H-indol-3-yl]ethyl}-N,N-dimethyl-sulfuric diamide], for which the negative-log EC50 (pEC50) is 5.52 to 6.30.

For `CC(C)Cn1cc(CCNS(=O)(=O)N(C)C)c2ccc(-c3cccc(-c4ccccc4)c3)cc21` [Example 55, N-{2-[6-([1,1′-biphenyl]-3-yl)-1-(2-methylpropyl)-1H-indol-3-yl]ethyl}-N,N-dimethyl-sulfuric diamide], the pEC50 was 5.52 to 6.30.

For the molecule `CC(C)Cn1cc(CCNS(=O)(=O)N(C)C)c2ccc(-c3ccccc3F)cc21` [Example 56, N-{2-[6-(2-fluorophenyl)-1-(2-methylpropyl)-1H-indol-3-yl]ethyl}-N,N-dimethylsulfuric diamide], the pEC50 is 5.52 to 6.30.

`CC(C)Cn1cc(CCNS(=O)(=O)N(C)C)c2ccc(-c3cccc(C#N)c3)cc21` [Example 59, N-{2-[6-(3-cyanophenyl)-1-(2-methylpropyl)-1H-indol-3-yl]ethyl}-N,N-dimethylsulfuric diamide]: the negative-log EC50 (pEC50) is above 6.30.

With `CC(C)Cn1cc(CCNS(=O)(=O)N(C)C)c2ccc(-c3cccc(S(C)(=O)=O)c3)cc21` [Example 60, N-{2-[6-(3-methylsulfonylphenyl)-1-(2-methylpropyl)-1H-indol-3-yl]ethyl}-N,N-dimethylsulfuric diamide], the pEC50 was 5.52 to 6.30.

By pEC50 is commonly meant −log10 of the EC50, conventionally taken in molar units.
